Reference: patent publication US6780855B2, “11β-HALOGEN-7α-SUBSTITUTED ESTRATRIENES, PROCESS FOR THE PRODUCTION OF PHARMACEUTICAL PREPARATIONS THAT CONTAIN THESE 11β-HALOGEN-7α-SUBSTITUTED ESTRATRIENES AS WELL AS THEIR USE FOR THE PRODUCTION OF PHARMACEUTICAL AGENTS” (Schering Aktiengesellschaft, priority 1997, dated 2004)

Legend:
[1] = system: human estrogen receptor; assay: Partial estrogenic action: transactivation assay, HeLa cells with HEGO and reporter gene rPR-TK-CAT; type: cell-based; settings: concentration of 1 μm, negative value means suppression of reporter gene activity below controls
Experimental: The partial estrogenic action of compounds according to the invention was determined by transactivation assays. HeLa cells were transfixed with human estrogen receptor expression vector (HEGO) and a reporter gene rPR-TK-CAT. This reporter gene contains the “Estrogen Responsive Element” of the rabbit progesterone receptor gene (+698/+729 region) before a TK-CAT gene (Savouret, J. F.; Bailly, A.; Misrahi, M.; Rauch, C.; Redeuilh, G.; Chauchereau, A.; Milgrom, E., Characterization of the Hormone Responsive Element Involved in the Regulation of the Progesterone Receptor Gene. EMBO J. 10, 1875-1883 (1991).
The estrogenic action was determined at a concentration of 1 μm.

[2] = system: uterus; assay: Uterus growth test in infantile rats (antiestrogenic action), p.o.; type: in vivo; settings: 0.3 mg p.o. once daily over 3 days with 0.5 μg estradiol benzoate s.c., inhibition compared to EB-control
Experimental: The uterus growth test in infantile rats, p.o. (test on antiestrogenic action in vivo) also confirms the antiestrogenic action of the compounds according to the invention. The test was performed as described below:
Uterus Growth Test in Infantile Rats (Antiestrogenic Action)
In rodents, the uterus reacts to the application of estrogens with an increase in weight (both proliferation and water retention). This growth can be inhibited in a dose-dependent manner by simultaneous administration of compounds that have an antiestrogenic action.
Infantile female rats weighing 35-45 g at the beginning of the test, 5-6 animals per dose.
Formulation and Administration of the Substances: […]
For the p.o. administration, the substances are dissolved in 1 part ethanol (E) and made up with 9 parts peanut oil (EÖ).
The young rats just dropped by the mothers are delivered for acclimation one day before the beginning of treatment and immediately supplied with food—right in the cage. […] The moist weight (less contents) is determined from the prepared uteri. […]
The average values are determined with standard deviation (X+SD) and the significance of the differences in the control group (EB) in the Dunnett Test (p<0.05) for each group from the relative organ weights (mg/100 g of body weight). […] The relative actions of the test substances are determined by co-variance analysis and regression analysis.

[3] = system: MVLN cells; assay: Transactivation assay for antiestrogenic action in MVLN cells (reporter gene Vit-TK-LUC); type: cell-based; settings: Homo sapiens; MVLN cell line, in the presence of 0.1 nM of estradiol
Experimental: (§1) The antiestrogenic action of the compounds according to the invention was determined in transactivation assays [Demirpence, E.; Duchesne, M.-J.; Badia, E.; Gagne, D. and Pons, M.: MVLN Cells: a Bioluminescent MCF-7-Derived cell Line to Study the Modulation of Estrogenic Activity; J. Steroid. Molec. Biol. Vol. 46, No. 3, 355-364 (1993) and Berry, M.; Metzger, D.; Chambon, P.: Role of the Two Activating Domains of the Estrogen Receptor in the Cell-type and Promoter-context Dependent Agonistic Activity of the Anti-estrogen 4-Hydroxytamoxifen; The EMBO Journal Vol. 9, 2811-2818 (1990)].
The MVLN cells are transfixed in a stable manner with reporter gene Vit-TK-LUC. The antiestrogenic active strength was determined in the presence of 0.1 nM of estradiol.
(§2) The IC50 values for the new compounds are in the nanomolar range. In the MVLN cell line, the following IC50 values are produced for the compound of Examples 3 and 8 (execution of test according to the above-indicated bibliographic references): […]

[4] = system: HeLa; assay: Transactivation assay for antiestrogenic action in HeLa cells; type: cell-based; settings: Homo sapiens
Experimental: as §1, §2

SMILES | Activation of the rPR-TK Promoter [% estradiol] [1] | Antiuterotrophic action at 0.3 mg [% inhibition] [2] | IC50 [3] | IC50 [4] | melting point
CN(CC=C(F)C(F)(F)C(F)(F)C(F)(F)F)CCCCC[C@@H]1Cc2cc(O)ccc2[C@@H]2[C@@H]1[C@@H]1CC[C@H](O)[C@@]1(C)C[C@@H]2F [Example 18, 11β-Fluoro-7α-{5-[methyl-(3,4,4,5,5,6,6,6-octafluoro-hex-2-enyl)-amino]-pentyl}-estra-1,3,5(10)-triene-3,17β-diol] | 29 % estradiol | – | – | – | –
CN(CCCCCCCCC(F)(F)C(F)(F)F)CCCCC[C@@H]1Cc2cc(O)ccc2[C@@H]2[C@@H]1[C@@H]1CC[C@H](O)[C@@]1(C)C[C@@H]2F [Example 3, 11β-Fluoro-7α-{5-[methyl-(9,9,10,10,10-pentafluoro-decyl)-amino]-pentyl}-estra-1,3,5(10)-triene-3,17β-diol] | −25 % estradiol | 68 % inhibition | 6.3 nM | 0.2 nM | –
CN(CCCCC[C@@H]1Cc2cc(O)ccc2[C@@H]2[C@@H]1[C@@H]1CC[C@H](O)[C@@]1(C)C[C@@H]2F)CCCOCc1ccccc1 [Example 22, 7α-{5-[(3-Benzyloxy-propyl)-methyl-amino]-pentyl}-11β-fluor-estra-1,3,5(10)-triene-3,17β-diol] | 53 % estradiol | – | – | – | –
CN(CCCCCCC(F)(F)C(F)(F)F)CCCCC[C@@H]1Cc2cc(O)ccc2[C@@H]2[C@@H]1[C@@H]1CC[C@H](O)[C@@]1(C)C[C@@H]2F [Example 12, 11β-Fluoro-7α-{5-[methyl-(7,7,8,8,8-pentafluor-octyl)-amino]-pentyl}-estra-1,3,5(10)-triene-3,17β-diol] | 34 % estradiol | – | – | – | –
CN(CCCCCCCC(F)(F)C(F)(F)F)CCCCC[C@@H]1Cc2cc(O)ccc2[C@@H]2[C@@H]1[C@@H]1CC[C@H](O)[C@@]1(C)C[C@@H]2F | – | – | – | – | 110 °C
CN(CCCCC[C@@H]1Cc2cc(O)ccc2[C@@H]2[C@@H]1[C@@H]1CC[C@H](O)[C@@]1(C)C[C@@H]2F)CCCC(F)(F)C(F)(F)F [Example 8, 11β-Fluoro-7α-{5-[methyl-(4,4,5,5,5-pentafluoro-pentyl)-amino]-pentyl}-estra-1,3,5(10)-triene-3,17β-diol] | 48 % estradiol | 0 % inhibition | 37 nM | 8 nM | –
